The values that follow come from US20170273916A1, “METHODS FOR TREATING AND PREVENTING NEURODEGENERATIVE DISEASES” (priority 2016, published 2017).

SMILES strings stand for the structures. Converted amounts (≈) assume the structure as drawn. “Also recorded” adds a separate entry of the source.

In assay [1] the test system is Aβ-induced PC12 cell model. The experiment in a line: Prophylactic effect on Aβ-induced PC12 AD cell model (sample pretreatment, then aggregated Aβ; CCK-8 cell viability). Format: cell-based, rat. Particulars: sample 24 h, then aggregated Aβ 24 h; for prophylactic effect on AD cell model (preventing Aβ-induced neuronal damage, cell viability): FIGS. 3A-3E, concentration not given. Here is the method: (§1) β-Amyloid 1-40 (Aβ) was dissolved in 0.1% (v/v) trifluoroacetic acid (TFA) in water at 10 mg/ml and stored at −20° C. as a stock solution. Af3 was diluted to 0.5 mg/ml with phosphate-buffered saline solution (PBS, without Ca2+) and aggregate at 25° C. for 48 hr before use. To investigate the therapeutic effect of extracts (ANCA, ANCA-D) and compounds (Antrocamol LT1, LT2, LT3) on Alzheimer disease (AD) cell model in vitro, cultures were pretreated with Aβ for 24 h and then exposed to freshly prepared extracts (ANCA, ANCA-D) and compounds (Antrocamol LT1, LT2, LT3) for 24 hr before cell viability measurements. In contrast, to investigate the prophylactic effect of extracts (ANCA, ANCA-D) and compounds (Antrocamol LT1, LT2, LT3) on AD cell model, cultures were pretreated with extracts (ANCA, ANCA-D) and compounds (Antrocamol LT1, LT2, LT3) for 24 h and then exposure to aggregated Aβ for 24 h before cell viability measurements. The cell viability was estimated by below formulation:
(§2) Cell viability (%)=(Sample-Blank)/(Control-Blank)×100%

The subject of assay [2] is Aβ-induced PC12 cell model. Nature of the assay: Therapeutic effect on Aβ-induced PC12 AD cell model (Aβ pretreatment, then sample; CCK-8 cell viability). In kind it is cell-based, rat. The settings on record: Aβ 24 h, then sample 24 hr; for therapeutic effect on AD cell model (inhibition of Aβ-induced damage, cell viability): FIGS. 2A-2E, concentration not given. Here is the method:
as §1, §2

The subject of assay [3] is NGF-induced PC12 cells. The experiment in a line: Viability of NGF-induced PC12 cells treated with extracts and compounds (CCK-8 assay). Particulars: Rattus norvegicus, PC-12, 24 hr incubation, CCK-8, FIGS. 1A-1E, read-out: IC50 (cell viability). In kind it is cell-based. As for the experimental part: PC12 cells were cultured in RPMI 1640 medium (5% fetal bovine serum, 10% heat-inactivated horse serum, 2 mM glutamine, 50 U/mL penicillin, […] streptomycin), at 37° C., 5% CO2, subculture twice a week.
PC12 cells need to be cultured in medium containing Nerve growth factor (NGF) 2.5S, (100 ng/mL) in advance for NGF-induced neuronal differentiation.
Cell Counting Kit-8(CCK-8) allows sensitive colorimetric assays for the determination of cell viability in cell proliferation and cytotoxicity assays. Dojindo's highly water-soluble tetrazolium salt, WST-8, is reduced by dehydrogenase activities in cells to give a yellow-color formazan dye, which is soluble in the tissue culture media. The amount of the formazan dye, generated by the activities of dehydrogenases in cells, is directly proportional to the number of living cells. The detection sensitivity of CCK-8 is higher than the other tetrazolium salts such as MTT, XTT, MTS or WST-1.
To optimize the exemplary extracts (ANCA, ANCA-D) and compounds (Antrocamol LT1, LT2, LT3) concentration for NGF-induced PC12 neural model, titration experiments were performed to determine the IC50 values of extracts and compounds. 5 x 10^4 NGF-induced PC12 cells were cultured in 96-well dish for 24 hr. Then the cells were cultured in medium with 1% fetal bovine serum, 2% heat-inactivated horse serum, 2 mM glutamine, 50 U/mL penicillin, […] streptomycin RPMI 1640 medium, then various concentrations of extracts [ANCA, ANCA-D (0.064, 0.32, 1.6, 8, 40, 200 μg/mL)] and compounds [Antrocamol LT1, LT2, LT3 (0.032, 0.16, 0.8, 4, 20, 100 μg/mL) were added individually and incubated for 24 hr. After treatment, the CCK-8 solution was added to each well of plates and incubates the plates for 4 hr in the incubator. The concentration of the formazan product was determined spectrophotometrically at an absorbance wavelength 450 nm and cell viability was expressed as a percentage of the corresponding control.

Consider `COC1=C(OC)[C@H](O)[C@H](C/C=C(\C)CC/C=C(\C)CC(O)C=C(C)C)[C@@H](C)C1=O` (stereo partly shown) [LT1, 4-hydroxy-5-[9-hydroxy-3,7,11-trimethyldodeca-2,6,10-trienyl]-2,3-dimethoxy-6-methyl-cyclohex-2-enone], for which the “prophylactic effect compared with extracts” value in assay [1] (100 μg/mL, 50 μg/mL, 25 μg/mL) is listed as “better prophylactic effect than extracts”. In addition, the “prophylactic effect on AD cell model (preventing Aβ-induced neuronal damage, cell viability)” value (“prophylactic effect on AD cell model” for short) in assay [1] was “significant impact in preventing”. Moreover, the figures for the “inhibitory effect on Aβ-induced damage (therapeutic)” value (“inhibitory effect” for short) in assay [2] (25 μg/mL), in assay [2] (50 μg/mL) and in assay [2] (100 μg/mL) were “weak”, “significant inhibitory effect” and “significant inhibitory effect”, respectively. In assay [2], the “therapeutic effect on AD cell model (inhibition of Aβ-induced damage, cell viability)” value was “significantly inhibited Aβ-induced damage and improved the cell viability”. For the same molecule, the IC50 in assay [3] turned out to be 178 µg/mL (≈ 439 µM).
Consider `COC1=C(OC)[C@H](OC(C)=O)[C@H](C/C=C(\C)CC/C=C(\C)CC(O)C=C(C)C)[C@@H](C)C1=O` (stereo partly shown) [LT2, 4-acetoxy-5-[9-hydroxy-3,7,11-trimethyldodeca-2,6,10-trienyl]-2,3-dimethoxy-6-methyl-cyclohex-2-enone], for which, in assay [1], the “prophylactic effect on AD cell model” value is recorded as “significant impact in preventing; also recorded: weak preventing effect”. Besides, the “inhibitory effect” value is “weak” in assay [2] (25 μg/mL), “significant inhibitory effect” in assay [2] (50 μg/mL) and “significant inhibitory effect” in assay [2] (100 μg/mL). Besides, in assay [2], the “therapeutic effect on AD cell model (inhibition of Aβ-induced damage, cell viability)” value is “significantly inhibited Aβ-induced damage and improved the cell viability”. Besides, the IC50 in assay [3] amounted to 168 µg/mL (≈ 376 µM).
For the molecule `COC1=C(OC)[C@H](O)[C@H](C/C=C(\C)CC/C=C(\C)C/C=C/C(C)(C)O)[C@@H](C)C1=O` [LT3, (4R,5R,6R)-4-hydroxy-5-[(2E,6E,9E)-11-hydroxy-3,7,11-trimethyldodeca-2,6,9-trienyl]-2,3-dimethoxy-6-methylcyclohex-2-enone], the “prophylactic effect on AD cell model” value in assay [1] is “significant impact in preventing; also recorded: weak preventing effect”. The “inhibitory effect” value in assay [2] (25 μg/mL) is recorded as “weak”; in assay [2] (50 μg/mL), “significant inhibitory effect”; in assay [2] (100 μg/mL), “significant inhibitory effect”. Further, the “therapeutic effect on AD cell model (inhibition of Aβ-induced damage, cell viability)” value in assay [2] was “significantly inhibited Aβ-induced damage and improved the cell viability”. In addition, the IC50 in assay [3] is 106 µg/mL (≈ 259 µM).
